# Laboratory results published in article PMC12261233, “Photoactivatable Cyclometalated Ir(III) Compound Penetrates the Blood-Brain Barrier in 3D Spheroidal and Advanced 3D Organoid Models of Inherently Resistant and Aggressive Brain Tumors” (ACS Pharmacology & Translational Science, 2025).
# System: hCMEC/D3 cells
# Experiment: Iridium uptake in Transwell binary coculture BBB model (ICP-MS), hCMEC/D3
# Type: cell-based, human
# Conditions: 10 μM applied apically, 24 h
# Protocol: The cellular uptake of anticancer compounds after penetrating the BBB is crucial for their efficacy in treating brain tumors. Understanding the extent of cellular uptake provides insights into the distribution and localization of these compounds within brain tumor cells, making such studies essential for assessing their potential efficacy. We utilized the static Transwell binary coculture BBB model, comprising an […] hCMEC/D3 cell line (representing the BBB) and a glioblastoma U87MG cell line. In this model, hCMEC/D3 cells were seeded on the apical side of the Transwell, while U87MG cells were seeded on the basolateral side. […] After a 24-h incubation, cells were harvested, counted, and the iridium uptake by both cell lines was analyzed using ICP-MS. […]
# To confirm that the tested compounds can effectively target and accumulate in the desired U87MG glioblastoma cells, a coculture model was employed to monitor cellular uptake in both hCMEC/D3 cells and U87MG cells. […] The total iridium uptake by U87MG or hCMEC/D3 cells was analyzed 24 h after treatment. In brief, the apical and basolateral parts were separated, and each cellular model was harvested by trypsinization, pelleted by centrifugation, and counted. […] The final iridium content was determined through ICP-MS analysis. The experiments were replicated in triplicate, and the data are expressed as nanograms of iridium per one million cells.
smiles,measurement,value
CCCCn1c2[n+](c3cc(C(=O)OC)ccc31)[Ir-3]13([Cl])([c]4ccccc4-2)[n+]2ccccc2-c2cc(-c4ccc(C)cc4)cc([n+]21)-c1cccc[n+]13.F[P-](F)(F)(F)(F)F [Ir4],iridium uptake by hCMEC/D3 cells,47 ± 7 ng Ir/10^6 cells
